Read-outs that look alike come from different tables or passages of the source.
What was measured:
A/Victoria (H3N2) = type: cell-based; settings: cellules MDCK; for Pourcentage de destruction cellulaire Cultures infectées (effet cytopathogène) par A/Victoria (H3N2): 3 jours
virus SV40 = assay: Inhibition of SV40 multiplication (cytopathogenic effect) in CV1 cell cultures; type: cell-based; settings: 3 jours, témoins 75
cellules CV1 = type: cell-based, singe
Method: La dilution de virus dans un tampon phosphate isotonique a été choisie de façon […] cultures témoins environ 75% de destruction cellulaire (75% d'effet cytopathogène) après 3 jours d'incubation. Après 1 heure de contact à 37°C, l'inocu- lum […] du même milieu contenant ou non les produits à étudier sont ajoutés. […] Des cultures de cellules non infectées par le virus et traitées avec les produits ont été aussi examinées pour […] cytotoxiques éventuels. Les pourcentages de destruction cellulaire dans les cultures infectées (effet cytopathogène) et dans les cultures non infectées (effet cytotoxique des produits) sont indiqués dans le tableau V.

SMILES | Pourcentage de destruction cellulaire Cultures infectées (effet cytopathogène) par A/Victoria (H3N2) (A/Victoria (H3N2); 0,5 µg/ml) [%] | Pourcentage de destruction cellulaire Cultures infectées (effet cytopathogène) par A/Victoria (H3N2) (A/Victoria (H3N2); 0,25 µg/ml) [%] | Pourcentage de destruction cellulaire Cultures infectées (effet cytopathogène) par A/Victoria (H3N2) (A/Victoria (H3N2); 1,0 µg/ml) [%] | effet inhibiteur de la multiplication du virus grippal A/Victoria (H3N2) (A/Victoria (H3N2); result in words) | Pourcentage de destruction cellulaire Cultures infectées par SV40 (effet cytopathogène) (virus SV40; 0,5 µg/ml) [%] | Pourcentage de destruction cellulaire Cultures infectées par SV40 (effet cytopathogène) (virus SV40; 0,5 µg/ml, listed as Acr(CH2)50H) | Pourcentage de destruction cellulaire Cultures infectées par SV40 (effet cytopathogène) (virus SV40; 0,25 µg/ml) [%] | Pourcentage de destruction cellulaire Cultures infectées par SV40 (effet cytopathogène) (virus SV40; 0,25 µg/ml, listed as Acr(CH2)50H) | Pourcentage de destruction cellulaire Cultures infectées par SV40 (effet cytopathogène) (virus SV40; 1,0 µg/ml) [%] | Pourcentage de destruction cellulaire Cultures infectées par SV40 (effet cytopathogène) (virus SV40; 2,0 µg/ml) [%] | effet cytotoxique / toxicité vis-à-vis des cellules saines (cellules CV1)
COc1ccc2nc3cc(Cl)ccc3c(NCCCCCO)c2c1 [Acr(CH2)5OH, méthoxy-2 chloro-6 (ω-hydroxypentyl-amino)-9 acridine] | 100 | 100 | 100 | dépourvu d'activité | 50 | n'exerce pas d'effet inhibiteur significatif | 75 | n'exerce pas d'effet inhibiteur significatif | 75 | 100 | –
COc1ccc2nc3cc(Cl)ccc3c(NCCCCCCO)c2c1 [HO(CH2)6 Z", méthoxy-2-chloro-6(ω-hydroxyhexylamino)-9 acridine] | – | – | – | – | – | – | – | – | – | – | trop important
